Activity and Ki data for one molecule are collected here from ChEMBL document CHEMBL1157703, “Synthesis, pharmacological studies and molecular modeling of some tetracyclic 1,3-diazepinium chlorides” (Bioorg Med Chem, 2010).

Data set [1] is filed under the species Mus musculus. Put plainly: Effect on behavioral activity in Albino mouse assessed as inhibition of diazepam-induced loss of screen grip at 0.2 ml/10 g by hippocratic screen. It counts as functional, organism-based.
For data set [2], the species on record is Mus musculus. The experiment in a line: Effect on behavioral activity in Albino mouse assessed as inhibition of diazepam-induced startle reaction at 0.2 ml/10 g by hippocratic screen. It counts as functional, organism-based.
Data set [3] is filed under the species Mus musculus. The experiment in a line: CNS toxicity in Albino mouse assessed as decrease in motor activity at 0.2 ml/10 g by hippocratic screen. Conditions: in vivo. It counts as organism-based.
The species named for data set [4] is Mus musculus. The experiment in a line: Effect on behavioral activity in Albino mouse assessed as inhibition of diazepam-induced decrease in respiratory rate at 0.2 ml/10 g by hippocratic screen. It counts as functional, organism-based.
The species entered for data set [5] is Mus musculus. Put plainly: Effect on behavioral activity in Albino mouse assessed as inhibition of diazepam-induced loss of righting reflex at 0.2 ml/10 g after 2 hrs by hippocratic screen. It counts as functional, organism-based.
Data set [6] is filed under the species Mus musculus. The experiment in a line: CNS toxicity in Albino mouse assessed as tremors at 0.2 ml/10 g by hippocratic screen. Conditions: in vivo. In kind it is organism-based.
The species named for data set [7] is Mus musculus. The experiment in a line: CNS toxicity in Albino mouse assessed as loss of righting reflex at 0.2 ml/10 g by hippocratic screen. In kind it is organism-based. As to conditions: in vivo.
The species named for data set [8] is Mus musculus. Put plainly: CNS toxicity in Albino mouse assessed as pinnal reflex at 0.2 ml/10 g by hippocratic screen. In kind it is organism-based. As to conditions: in vivo.
Data set [9] concerns the target T1, GABA A receptor alpha-3/beta-2/gamma-2 (Homo sapiens, UniProt P18507+P34903+P47870).
T1 sequence (P47870 whole entry): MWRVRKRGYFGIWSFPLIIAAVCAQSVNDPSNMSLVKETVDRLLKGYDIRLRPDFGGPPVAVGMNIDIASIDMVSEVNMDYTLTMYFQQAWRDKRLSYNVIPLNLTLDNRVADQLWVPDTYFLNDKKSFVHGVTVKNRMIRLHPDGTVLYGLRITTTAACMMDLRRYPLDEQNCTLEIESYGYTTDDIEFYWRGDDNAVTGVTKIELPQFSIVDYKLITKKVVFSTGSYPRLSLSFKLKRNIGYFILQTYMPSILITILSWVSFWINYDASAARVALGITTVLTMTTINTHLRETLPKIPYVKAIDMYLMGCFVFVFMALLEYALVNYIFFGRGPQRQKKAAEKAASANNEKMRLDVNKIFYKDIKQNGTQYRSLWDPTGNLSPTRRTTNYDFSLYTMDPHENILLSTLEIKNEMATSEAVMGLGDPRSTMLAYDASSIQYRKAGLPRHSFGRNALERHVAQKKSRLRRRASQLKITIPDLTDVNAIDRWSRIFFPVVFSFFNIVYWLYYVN
T1 sequence (P18507 whole entry): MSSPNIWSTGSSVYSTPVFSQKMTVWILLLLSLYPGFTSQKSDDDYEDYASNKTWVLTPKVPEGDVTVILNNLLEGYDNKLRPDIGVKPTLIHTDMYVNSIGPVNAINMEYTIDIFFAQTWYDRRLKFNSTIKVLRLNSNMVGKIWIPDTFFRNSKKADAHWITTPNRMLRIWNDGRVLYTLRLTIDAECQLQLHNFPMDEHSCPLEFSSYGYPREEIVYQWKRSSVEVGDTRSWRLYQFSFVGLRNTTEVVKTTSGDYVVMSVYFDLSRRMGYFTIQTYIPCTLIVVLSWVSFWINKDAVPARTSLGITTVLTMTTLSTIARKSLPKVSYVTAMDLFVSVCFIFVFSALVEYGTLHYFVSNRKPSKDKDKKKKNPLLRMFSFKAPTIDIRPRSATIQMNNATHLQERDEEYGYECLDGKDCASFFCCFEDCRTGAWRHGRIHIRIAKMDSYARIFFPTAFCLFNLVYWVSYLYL
T1 sequence (P34903 whole entry): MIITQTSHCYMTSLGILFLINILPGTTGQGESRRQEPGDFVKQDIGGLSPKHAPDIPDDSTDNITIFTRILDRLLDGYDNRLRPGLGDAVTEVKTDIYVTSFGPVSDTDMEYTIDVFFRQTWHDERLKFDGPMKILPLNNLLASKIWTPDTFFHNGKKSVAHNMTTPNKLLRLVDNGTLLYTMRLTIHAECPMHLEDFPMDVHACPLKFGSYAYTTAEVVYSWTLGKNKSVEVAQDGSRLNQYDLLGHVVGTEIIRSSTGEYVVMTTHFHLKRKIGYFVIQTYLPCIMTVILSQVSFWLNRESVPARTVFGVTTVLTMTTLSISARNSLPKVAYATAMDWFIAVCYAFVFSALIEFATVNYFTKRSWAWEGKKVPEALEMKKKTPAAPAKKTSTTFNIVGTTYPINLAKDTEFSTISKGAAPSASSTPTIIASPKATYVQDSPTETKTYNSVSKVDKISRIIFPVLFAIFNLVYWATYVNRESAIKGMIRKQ
The experiment in a line: Displacement of [3H]flunitrezepam from GABAA alpha-3-beta-2-gamma-2 receptor by liquid scintillation counting. It counts as protein-complex assay.

For data set [10], the species on record is Mus musculus. The experiment in a line: Effect on behavioral activity in Albino mouse assessed as inhibition of diazepam-induced tremors at 0.2 ml/10 g by hippocratic screen. In kind it is functional, organism-based.
Data set [11] concerns the target T2, GABA A receptor alpha-2/beta-2/gamma-2 (Homo sapiens, UniProt P18507+P47869+P47870).
T2 sequence (P47870 whole entry): T1 sequence (P47870 whole entry)
T2 sequence (P18507 whole entry): T1 sequence (P18507 whole entry)
T2 sequence (P47869 whole entry): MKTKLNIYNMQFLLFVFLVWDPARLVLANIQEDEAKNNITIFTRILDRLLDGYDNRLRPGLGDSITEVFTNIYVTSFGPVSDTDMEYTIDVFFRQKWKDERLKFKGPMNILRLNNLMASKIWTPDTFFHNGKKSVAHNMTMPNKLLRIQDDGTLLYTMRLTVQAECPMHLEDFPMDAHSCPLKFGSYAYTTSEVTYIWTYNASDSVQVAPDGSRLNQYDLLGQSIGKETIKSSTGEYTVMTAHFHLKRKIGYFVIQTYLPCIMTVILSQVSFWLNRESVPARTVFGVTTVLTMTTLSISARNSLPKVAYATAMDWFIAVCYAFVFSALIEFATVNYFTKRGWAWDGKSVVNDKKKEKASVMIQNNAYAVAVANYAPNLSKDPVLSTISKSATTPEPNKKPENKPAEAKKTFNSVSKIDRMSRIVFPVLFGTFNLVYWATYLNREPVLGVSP
The experiment in a line: Displacement of [3H]flunitrezepam from GABA-A alpha-2-beta-2-gamma-2 receptor by liquid scintillation counting. In kind it is protein-complex assay.

For data set [12], the species on record is Mus musculus. The experiment in a line: Effect on behavioral activity in Albino mouse assessed as inhibition of diazepam-induced pinnal reflex at 0.2 ml/10 g by hippocratic screen. It counts as functional, organism-based.
The species named for data set [13] is Mus musculus. Put plainly: Effect on behavioral activity in Albino mouse assessed as inhibition of diazepam-induced anesthesia at 0.2 ml/10 g by hippocratic screen. In kind it is functional, organism-based.
For data set [14], the system named is Mus musculus. Put plainly: CNS toxicity in Albino mouse assessed as anesthetic response at 0.2 ml/10 g by hippocratic screen. In kind it is organism-based. Conditions: in vivo.
The species entered for data set [15] is Mus musculus. Put plainly: CNS toxicity in Albino mouse assessed as loss of screen grip at 0.2 ml/10 g by hippocratic screen. It counts as organism-based. As to conditions: in vivo.
For data set [16], the species on record is Mus musculus. The experiment in a line: Effect on behavioral activity in Albino mouse assessed as inhibition of diazepam-induced paralysis at 0.2 ml/10 g by hippocratic screen. It counts as functional, organism-based.

Calls of active or inactive are those of the source. No cut-off for these calls is given here.

With `COc1ccc2c3c(oc2c1)C(=O)Nc1cccc[n+]1C3.[Cl-]`, the outcome in the data set filed under Mus musculus [1], in the data set filed under Mus musculus [2], in the data set filed under Mus musculus [4], in the data set listed under Mus musculus [5], in the data set listed under Mus musculus [10] and in the data set listed under Mus musculus [13] was inactive. Moreover, the outcome in the data set filed under Mus musculus [16] was inactive. The Activity result in the data set listed under Mus musculus [3], in the data set listed under Mus musculus [6], in the data set filed under Mus musculus [7], in the data set listed under Mus musculus [8], in the data set on Mus musculus [14] and in the data set listed under Mus musculus [15] was “Non-toxic” throughout. In addition, the Ki amounted to 1.54 µM in data set [9] and 8.08 µM in data set [11]. In addition, the outcome in the data set filed under Mus musculus [12] was Active.
